Reference: patent publication US20040121992A1, “Therapeutic methods of reducing cholesterol accumulation” (priority 2002, published 2004)
Values joined by “and” are separate entries in the source; they are usually repeats but may differ in a detail not shown here. Equal entries are not always repeated. Where two headings read alike, the source gives them in different places.

How the values were obtained:
CHO cells = type: cell-based; conditions: for % new chol / ug cholest. / ug new chl / 372/368: 5 uM, CHO cells; for % new chol / ug cholest. / ug new chl: duplicate samples; for 372/368: ion ratio m/z 372 to m/z 368, duplicate samples
SLOS fibroblasts = type: cell-based, human
Protocol: The effect of 27-hydroxy-7-dehydrocholesterol on cholesterol synthesis was studied in CHO cells (Table 2). SLOS fibroblasts were plated at a density of 375,000 cells in a T-25 flask in DMEM containing 10% fetal bovine serum. After 24 hours, the media was changed to McCoy's 5A containing 7.5% lipoprotein deficient serum and 25% D2O. To these cultures, either 5 μM of 27-hydroxycholesterol or 27-hydroxy-7-dehydrocholesterol in hydroxypropyl-β-cyclodextrin were added. Control cultures had only the vehicle added. Media was changed on day 3 and cell pellets were obtained on day 5. Newly synthesized 7-DHC was determined by a combination of GLC-FID and GLC-MS. At a medium concentration of 5 μM 27-hydroxy-7-dehydrocholesterol, the synthesis rate of 7-DHC fell to less than 2 ng/day/T-25 flask in each cell line. […] In untreated cultures, the rates of 7-DHC synthesis were 326±8 and 1414±88 ng/day/T-25 flask (mean±SD) for A2SLO and 4350SLO respectively.

Compound | % new chol (CHO cells; listed as 27OH) | ug cholest. (CHO cells; listed as 27OH) | ug new chl (CHO cells; listed as 27OH) | 372/368 (CHO cells; listed as 27OH) | % new chol (CHO cells) | ug cholest. (CHO cells) | ug new chl (CHO cells) | 372/368 (CHO cells) | inhibition of cholesterol synthesis compared with an equimolar amount of 27-hydroxycholesterol (CHO cells; 5 μM, cell culture) | inhibition of cholesterol synthesis (in words) (CHO cells; cell culture assays) | metabolism to 27-hydroxycholesterol in SLOS fibroblasts (SLOS fibroblasts) | synthesis rate of 7-DHC (SLOS fibroblasts; medium concentration 5 μM, each cell line (A2SLO and 4350SLO), untreated 326±8 and 1414±88)
CC(CO)CCC[C@@H](C)[C@H]1CC[C@H]2[C@@H]3CC=C4C[C@@H](O)CC[C@]4(C)[C@H]3CC[C@]12C (stereo partly drawn) [27-hydroxycholesterol, cholest-5-ene-3 β, 27-diol, reference compound] | 4.4% and 3.6% | 29.9 µg and 33.1 µg | 1.3 µg and 1.2 µg | 0.013 and 0.011 |  |  |  |  |  |  |  | 
CC(CO)CCC[C@@H](C)[C@H]1CC[C@H]2C3=CC=C4C[C@@H](O)CC[C@]4(C)[C@H]3CC[C@]12C (stereo partly drawn) [27-hydroxy-7-dehydrocholesterol, cholesta-5,7-diene-3β-27 diol] |  |  |  |  | 2.6% and 2.9% | 29.5 µg and 32.6 µg | 0.78 µg and 0.95 µg | 0.0079 and 0.0087 | slightly greater | potent inhibitor of cholesterol synthesis | did not metabolize | less than 2 ng/day/T-25 flask
